In the OligoGym collection:
“And” between values parts separate entries of the source, which are not always exact repeats. Equal values may be shown once. These antisense oligonucleotides have a phosphorothioate backbone; sugars and methylation of C are not fully specified.

Molecular target: TNF
Settings: ASO
Note: test concentration or dose not given here.

Sequence | remaining target (mRNA or protein) (fraction of control)
CCTCGCTGAGTTCTGCCGGCT | 0.99
CCTCTTTCCCTTACCCTCCTG | 0.1
CTGGTCCCTTGGTGTCCTCGC | 0.69
CTGGTCTTTCCACGTCCCATT | 0.17
CTTCTTCCCTGTTCCCCTGGC | 0.2
CTTGAGCTCAGCTCCCTCAGG | 0.45
GAAGCCTCCCCGCTCTTTGCC | 0.25
GATCATGCTTTCCGTGCTCAT | 0.94
GCAGCCTTGTCCCTTGAAGAG | 0.73
GCCTGAAGACAGCTTCCCAAC | 0.24
GCTGAGCAGGTCCCCCTTCTC | 0.8
GCTGGAAGACTCCTCCCAGGT | 0.35
GGCACTCACCTCCTCCTTGTT | 0.94
GGGAAATTCCCAGGACCAGGG | ≥ 1
GGGATAGCTGGTAGTTTAG | ≥ 1
GGTCTCCCTCCCCAACTCTCC | 0.18
GGTTCCGTAAGGAAGGCTGG | 0.94
GTCGCCTCACAGAGCAATGAC | ≥ 1
GTTTCCCCTCCATCTCCCTCC | 0.26
TAGACGATAAAGGGGTCAGAG | ≥ 1
TATCTCCCTCGTCTCCCATCT | 0.27
TCCACTCCCCCGATCCACTCA | 0.11
TGATCCACTCCCCCCTCCACT | 0.06 and 0.1
TTCCCAACGCTGGGTCCTCCA | ≥ 1
TTCTTGCCCTCCCTCCCTACT | 0.12
TTGCTGTTCTCCCTCCTGGCT | 0.15

Molecular target: VCAM1
Settings: ASO

Sequence | remaining target (mRNA or protein) (fraction of control)
AACATCTCCGTACCATGCCA | 0.25
AACCCAGTGCTCCCTTTGCT | 0.21
AACCCTTATTTGTGTCCCACC | 0.09
AACTCCTCCAGTTCTCTCATC | 0.12
ACCTGTGTGTGCCTGGGAGGG | 0.26
ACGACCATCTTCCC | 0.51
CACGAGGCCACCACTCATCTC | 0.05
CAGATCAGGGAACTCCTC | 0.55
CAGCCTGCCTTACTGTGGGC | 0.67
CATCTCGATTTCTGG | 0.47
CATCTTCCCAGGCAT | 0.45
CCACCACTCATCTCG | 0.26
CCCAGGCATTTTAAG | 0.78
CCCAGGCATTTTAAGTTGCTG | 0.33
CCCATTCACGAGGCCACC | 0.11
CCCGGCATCTTTACAAAACC | 0.45
CCCTTATTTGTGTCCC | 0.37
CCTCCAGTTCTCTC | 0.32
CCTGAAGCCAGTGAGG | 0.61
CCTGAAGCCAGTGAGGCCCG | 0.42
CCTGGGAGGGTATTC | 0.39
CCTGTGTGTGCCTGGGAGGG | 0.88

Sequence | remaining target (mRNA or protein) (fraction of control)
CGACCATCTTCCCAGGCATTT | 0.2
CGAGGCCACCACTC | 0.16
CGATGCAGATACCGCGGAGT | 0.37
CGTGATGAAGAAAATAGTGGTT | 0.49
CTCTCATCTTGATGGC | 0.55
CTGTGTGTCCTGTCTCCGCT | 0.27
CTTGAACAATTAATTCCACCT | 0.37
CTTTGACTTCTTGCTCACAGC | 0.07
GCAATCTTGCTATGGCATAA | 0.48
GCCAGTGAGGCCCG | 0.35
GCCTGGGAGGGTATTCAGCT | 0.58
GCCTGGGAGGGTATTCAGCTC | 0.3
GGCATTTTAAGTTGCTGTCG | 0.34
GGCCACATTGGGAAAGTTGC | 0.29
GGTATTCAGCTCCTGAAG | 0.69
GGTTCCAAAACCCTT | 0.42
GTCTTTGTTGTTTTCTCTTCC | 0.41
TGAACATATCAAGCATTAGC | 0.53
TTACCATTGACATAAAGTGTT | 0.52
TTTAAGCAATCTTGCTATGGC | 0.81
TTTGTGTCCCACCTG | 0.1
